Experimental data taken from publication PMC5111108, “An insecticide resistance-breaking mosquitocide targeting inward rectifier potassium channels in vectors of Zika virus and malaria” (Scientific Reports, 2016).

Tests used:
Kir1.1 = target: T1, Kir1.1 (Rattus norvegicus, UniProt P35560); assay: Tl+ flux assay, mammalian Kir1.1; assay type: cell-based; conditions: read-out: inhibition of Kir1.1
T1 sequence (P35560 1-391): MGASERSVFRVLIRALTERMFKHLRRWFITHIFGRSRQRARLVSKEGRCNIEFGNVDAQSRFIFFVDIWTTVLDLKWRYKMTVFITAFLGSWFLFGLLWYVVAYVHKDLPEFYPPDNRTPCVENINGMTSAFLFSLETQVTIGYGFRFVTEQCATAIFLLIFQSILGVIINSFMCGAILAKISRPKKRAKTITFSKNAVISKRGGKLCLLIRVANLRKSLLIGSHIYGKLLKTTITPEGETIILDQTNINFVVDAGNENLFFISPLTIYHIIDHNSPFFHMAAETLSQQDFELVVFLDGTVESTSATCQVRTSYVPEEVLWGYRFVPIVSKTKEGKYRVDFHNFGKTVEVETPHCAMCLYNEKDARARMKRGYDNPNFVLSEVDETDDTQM

honey bee, A. mellifera = assay: Acute topical toxicity to adult honey bees; assay type: in vivo, Apis mellifera; conditions: 1 mg per bee topical, 48 h
Description: Frames of late-stage honey bee (A. mellifera) pupae were taken from four colonies at The Ohio State University Honey Bee Lab in Wooster, OH and maintained in a dark humid incubator at 34 °C (Darwin Chambers Co., St. Louis, MO, model H024) until adult bees emerged. New adults were brushed from frames daily and placed in wooden screen cages (21 × 14 × 12 cm) provisioned with 1:1 (w/w) sucrose in water.
Acute toxicity experiments in adult bees were performed as follows. Twenty-four hours after emergence, adult honey bees in cages were anaesthetized with carbon dioxide, divided into groups of approximately 20 bees and placed in plastic-coated paper cups (177 cm^3; UNIQ Paper Yogurt Cup, Frozen Dessert Supplies, Gilbert, AZ) covered with cotton cheesecloth. […] As a positive control, some bees were treated with 3 μl of bifenthrin (0.1 μg/μl); negative controls consisted of bees treated with 3 μl of solvent. Applications were made using a 20 μl micropipette (Fisherbrand Finnpipette F2, Fisher Scientific, Pittsburgh, PA) with disposable plastic tips. After treatment, bees were returned to the paper cups and provided with sugar syrup in punctured 1.5 ml microcentrifuge tubes. […] Bees showing no movement on inspection at 48 h after treatment were scored as dead.

AeKir1 = target: T2, AeKir1 (Aedes aegypti, UniProt L0EQS9); assay: Two-electrode voltage clamp in Xenopus oocytes expressing AeKir1 or AeKir2B; assay type: cell-based; conditions: 50 μM, inward K+ currents at -140 mV
T2 sequence (L0EQS9 1-486): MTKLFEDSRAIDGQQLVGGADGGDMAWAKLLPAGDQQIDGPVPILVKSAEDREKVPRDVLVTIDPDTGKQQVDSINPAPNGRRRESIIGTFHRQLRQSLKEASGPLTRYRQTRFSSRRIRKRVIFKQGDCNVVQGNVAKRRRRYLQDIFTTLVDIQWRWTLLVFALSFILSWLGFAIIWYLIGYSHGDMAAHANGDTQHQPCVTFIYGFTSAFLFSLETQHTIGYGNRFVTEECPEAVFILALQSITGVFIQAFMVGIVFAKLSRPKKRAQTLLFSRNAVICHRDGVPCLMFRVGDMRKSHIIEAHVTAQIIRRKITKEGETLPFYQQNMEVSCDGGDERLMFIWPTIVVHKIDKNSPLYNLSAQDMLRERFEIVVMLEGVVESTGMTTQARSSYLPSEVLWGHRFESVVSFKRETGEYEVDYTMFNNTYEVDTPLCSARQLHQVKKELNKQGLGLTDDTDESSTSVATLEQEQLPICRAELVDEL
Description: Heterologous expression of AeKir1 or AeKir2B was performed in Xenopus laevis oocytes as described previously. Current-voltage (I-V) relationships of oocytes were acquired by clamping the membrane potential (Vm) near the spontaneous, resting Vm and then initiating a voltage-stepping protocol (via the Clampex module of pCLAMP) consisting of 20 mV steps from −140 mV to +40 mV (100 ms each). Additional details are provided in the Supplemental Methods.
Patch clamp electrophysiology
Patch electrodes were pulled from silanized 1.5 mm outer diameter borosilicate microhematocrit tubes using a P-1000 Flaming/Brown micropipette puller (Sutter Instrument, Novato CA, USA). Electrode resistance ranged from 2 -4 MΩ. Whole-cell currents were recorded under voltage-clamp conditions using an Axopatch 200B amplifier (Molecular D evices, Sunn yvale, CA). […]
The voltage clamp was then turned off during solution changes, and when the oocyte reach ed a n ew stead y-state Vm (~90 s) the I-V relationship of the ooc yt e was acquired again. All Vm and Im v alues were digitally recorded (Digidata 1440A Data Acquisition System, Molecular Devices) and the r esulting I-V plots were generated with the Clampfit module of pC LAMP. […]
[…]

Q: `O=C(Cn1nc(C(F)(F)F)c2c1CCCC2)N1CCCc2ccccc21` [VU041, 1-(3,4-dihydroquinolin-1(2H)-yl)-2-(3-(trifluoromethyl)-4,5,6,7-tetrahydro-1H-indazol-1-yl)ethan-1-one] was tested. Which inhibition at 30 µM (Kir1.1) did it give?
A: < 10%

Q: And the honey bees alive (honey bee, A. mellifera)?
A: 91.3%

Q: What about the “preference of inhibition AeKir1 vs AeKir2B” value (AeKir1) of the same compound?
A: preferentially inhibited AeKir1 over AeKir2B
